Results on ten molecules are retold here after article PMC4671658, “Release of 50 new, drug-like compounds and their computational target predictions for open source anti-tubercular drug discovery” (PLoS ONE, 2015).

In series [1] the test system is M. tuberculosis H37Rv in infected THP1 cells. As to the kind of experiment: Intracellular assay (luciferase H37Rv in THP1 cells). The format is cell-based, Mycobacterium tuberculosis. The conditions noted are these: for IC50: Mycobacterium tuberculosis, H37RV, THP-1, 120 h, read-out: ACT In Intracellular pX50 (converted).
In another series the test system is M. tuberculosis H37Rv. As to the kind of experiment: M. tuberculosis inhibition assay (MABA, resazurin) MIC. The conditions noted are these: Mycobacterium tuberculosis. The format is cell-based. (In general: The colour change of resazurin is a common sign of viable cells or microbes.)
For a further series, the system named is M. bovis BCG Pasteur. The series is described as follows: microbe, parasite or virus in culture. The format is cell-based, Mycobacterium bovis BCG. To be noted: for IC50: Mycobacterium tuberculosis variant bovis BCG, BCG, read-out: BCG pIC50 (converted).
For a further series, the system named is HepG2 cells. The conditions noted are these: HepG2, 48 h.
Series [2] can be described thus: physchem. The conditions noted are these: pH 7.4, kinetic from dmso stock.
Series [3] is described as follows: physchem. The conditions noted are these: pH 7.4.
For series [4], the system named is non-replicating M. tuberculosis H37Rv. As to the kind of experiment: Activity against non-replicating Mycobacterium tuberculosis. The conditions noted are these: non-replicating conditions; for ACT In NR % inhibition: active/inactive call, experiments with inh > 50%.

≈ marks a conversion by molar mass, not a printed value. Some results are limits rather than exact numbers.

On to `Cc1ccc2oc(SCC(=O)Nc3nccs3)nc2n1` [TCMDC-143682], for which, in series [1] (THP1 cells, the one compound of 26 tested that was not active), the “Inhibition of intracellular growth (active = pIC50 above 5)” value was “all but one (TCMDC-143682) were active”.

A word on the MIC: it is the lowest concentration that inhibits growth of the organism. A high value points to weaker potency. Broadly, the solubility is the concentration that dissolves in the medium under given conditions. High values mean a readily soluble substance, low ones a poorly soluble substance. Broadly, the chromatographic logD is a lipophilicity value derived from retention on a column. Turning to `Nc1ccccc1Nc1ccc(Cl)cc1` [TCMDC-143654], the minimum inhibitory concentration (MIC) with M. tuberculosis H37Rv is 2 µM (≈ 0.437 µg/mL). Moreover, the IC50 with M. bovis BCG Pasteur was 0.1 µM. Further, the IC50 in series [1] is 0.0158 µM. Moreover, the “TOX50 HepG2” value in the series on HepG2 cells is 79 µM. In “physchem [2]”, this molecule returned a solubility of 59 µg/mL (≈ 270 µM). Besides, the chromatographic logD in the series “physchem [3]” stood at 5.76. Further, in series [4], the “ACT In NR pXC50” value was 4,5 and the “ACT In NR % inhibition” value was “ACTIVE 8 expts out of 11 with inh > 50%”.

`O=C(NCc1ccco1)N1CCN(Cc2ccc(Cl)s2)CC1` [TCMDC-143653]: in the series on M. tuberculosis H37Rv, inhibition of growth (MIC) required 2 µM (≈ 0.68 µg/mL). In addition, the IC50 with M. bovis BCG Pasteur was 1.26 µM; in series [1], 2.51 µM. The “TOX50 HepG2” value with HepG2 cells was greater than 100 µM. The molecule also came in with a solubility in “physchem [2]” of 98 µg/mL (≈ 288 µM). This molecule also returned a chromatographic logD in “physchem [3]” of 4.82. Moreover, the “ACT In NR % inhibition” value in series [4] is given as “INACTIVE”.

`CNc1nc(SC)nnc1-c1cccc(Cl)c1Cl` [TCMDC-143661]: the minimum inhibitory concentration (MIC) against M. tuberculosis H37Rv is 2.5 µM (≈ 0.753 µg/mL). The IC50 was 12.6 µM in the series on M. bovis BCG Pasteur and 0.794 µM in series [1]. Moreover, in the series on M. bovis BCG Pasteur (hit in Mtb screen, not in BCG screen), the “Mtb specific (inactive against M. bovis BCG)” value is on record as “Mtb specific”. The “TOX50 HepG2” value in the series with HepG2 cells is greater than 100 µM. The same molecule yielded a solubility in the series “physchem [2]” of 85 µg/mL (≈ 282 µM). For the same molecule, in the series “physchem [3]”, the chromatographic logD stood at 4.94. Also, the “ACT In NR % inhibition” value in series [4] is “INACTIVE”.

In the case of `NS(=O)(=O)c1ccc(Nc2cnc3ccccc3n2)cc1` [TCMDC-143656], the minimum inhibitory concentration (MIC) with M. tuberculosis H37Rv was determined as 2 µM (≈ 0.601 µg/mL). Also, the IC50 in the series on M. bovis BCG Pasteur was 6.31 µM. Also, the “TOX50 HepG2” value in the series with HepG2 cells was greater than 100 µM. In “physchem [2]”, the concentration in solution (solubility) was 112 µg/mL (≈ 373 µM). Besides, the chromatographic logD in “physchem [3]” is 1.07. Also, the “ACT In NR % inhibition” value in series [4] was “INACTIVE”.

On to `O=C(NCc1ccco1)N1CCN(Cc2ccc3c(c2)CCO3)CC1` [TCMDC-143652], for which, in the series with M. tuberculosis H37Rv, the MIC was determined as 2 µM (≈ 0.683 µg/mL). Besides, the IC50 with M. bovis BCG Pasteur was 2.51 µM. Also, in the series on HepG2 cells, the “TOX50 HepG2” value is greater than 100 µM. For the same molecule, in “physchem [2]”, the solubility amounted to 88 µg/mL (≈ 258 µM). In “physchem [3]”, this molecule yielded a chromatographic logD of 3.47. The “ACT In NR % inhibition” value in series [4] is “INACTIVE”.

Consider `O=C(NCc1ccco1)N1CCN(Cc2ccc3c(c2)OCO3)CC1` [TCMDC-143650], for which the minimal inhibitory concentration (MIC) with M. tuberculosis H37Rv amounted to 1.25 µM (≈ 0.429 µg/mL). Besides, in the series with M. bovis BCG Pasteur, the IC50 is 1.26 µM. Moreover, in the series on HepG2 cells, the “TOX50 HepG2” value was greater than 100 µM. In the series “physchem [2]”, the solubility worked out at 86 µg/mL (≈ 250 µM). In the series “physchem [3]”, this molecule returned a chromatographic logD of 3.48. Besides, in series [4], the “ACT In NR % inhibition” value was “INACTIVE”.

In the case of `COc1ccc2nccc(NC(=O)C3CCN(CCc4ccc(Cl)cc4)CC3)c2n1` [TCMDC-143649], the MIC with M. tuberculosis H37Rv came out at 0.2 µM (≈ 0.085 µg/mL). The IC50 in the series on M. bovis BCG Pasteur is 5.01 µM. Further, the “TOX50 HepG2” value with HepG2 cells is greater than 100 µM. The solubility in the series “physchem [2]” came to 4 µg/mL (≈ 9.41 µM). The chromatographic logD in “physchem [3]” came out at 5.49. In series [4], the “ACT In NR pXC50” value was 5,1 and the “ACT In NR % inhibition” value was “ACTIVE 7 expts out of 10 with inh > 50%”.

In turn, `NCC(c1cccs1)S(=O)(=O)c1ccccc1` (centres unmarked) [TCMDC-143655] gave an MIC against M. tuberculosis H37Rv of 2 µM (≈ 0.535 µg/mL). In the series with M. bovis BCG Pasteur, the IC50 is 5.01 µM. The “TOX50 HepG2” value in the series with HepG2 cells stood at 32 µM. Moreover, the concentration in solution in the series “physchem [2]” (solubility) came to 134 µg/mL (≈ 501 µM). Moreover, the chromatographic logD in the series “physchem [3]” came to 2.5. Further, the “ACT In NR % inhibition” value in series [4] is “INACTIVE”.

`CCCC/C=C/c1cc2ccncc2cc1OC1CCNCC1` [TCMDC-143651] came in with an MIC against M. tuberculosis H37Rv of 1.6 µM (≈ 0.497 µg/mL). Also, the IC50 in the series on M. bovis BCG Pasteur was 2.51 µM; in series [1] it was 1.26 µM. The “TOX50 HepG2” value in the series with HepG2 cells came out at 16 µM. The molecule also gave a solubility in “physchem [2]” of 36 µg/mL (≈ 116 µM). The chromatographic logD in the series “physchem [3]” was 3.61. Besides, the “ACT In NR % inhibition” value in series [4] was “INACTIVE”.
